Laboratory results reported in US8952157B2, “Apoptosis-inducing agents for the treatment of cancer and immune and autoimmune diseases” (AbbVie Inc., priority 2008, dated 2015).

Each molecule was assayed against GST-Bcl-2 (Homo sapiens (Human), UniProt P10415) (assay: Time Resolved-Fluorescence Resonance Energy Transfer (TR-FRET) Bcl-2 binding assay). Conditions: not given.
Sequence of GST-Bcl-2 (P10415 whole entry): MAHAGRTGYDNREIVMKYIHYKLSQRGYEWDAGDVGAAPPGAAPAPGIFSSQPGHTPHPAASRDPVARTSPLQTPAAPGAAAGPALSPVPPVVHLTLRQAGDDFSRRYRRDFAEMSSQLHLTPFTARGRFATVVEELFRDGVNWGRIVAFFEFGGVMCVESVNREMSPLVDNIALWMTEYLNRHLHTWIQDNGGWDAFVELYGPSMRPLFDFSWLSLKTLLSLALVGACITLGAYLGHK
In short: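 Competition TR-FRET: GST-Bcl-2 with fluorescent Bak peptide probe and Tb-anti-GST antibody, compounds serially diluted from 50 μM (2× start, 10% DMSO).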
`CC1(C)CCC(CN2CCN(c3ccc(C(=O)NS(=O)(=O)c4ccc(N[C@H]5CC[C@H](N6CCOCC6)CC5)c([N+](=O)[O-])c4)c(Oc4cc5cc[nH]c5cc4F)c3)CC2)=C(c2ccc(Cl)cc2)C1` [Example 234, Trans-4-(4-{[2-(4-chlorophenyl)-4,4-dimethylcyclohex-1-en-1-yl]methyl}piperazin-1-yl)-2-[(6-fluoro-1H-indol-5-yl)oxy]-N-({4-[(4-morpholin-4-ylcyclohexyl)amino]-3-nitrophenyl}sulfonyl)benzamide] gave a Ki of 0.099 nM.
For `CC1(C)CCC(CN2CCN(c3ccc(C(=O)NS(=O)(=O)c4ccc(N[C@H]5CC[C@H](N6CCOCC6)CC5)c([N+](=O)[O-])c4)c(Oc4cc5cc[nH]c5c(F)c4F)c3)CC2)=C(c2ccc(Cl)cc2)C1` [Example 235, Trans-4-(4-{[2-(4-chlorophenyl)-4,4-dimethylcyclohex-1-en-1-yl]methyl}piperazin-1-yl)-2-[(6,7-difluoro-1H-indol-5-yl)oxy]-N-({4-[(4-morpholin-4-ylcyclohexyl)amino]-3-nitrophenyl}sulfonyl)benzamide], the Ki was 0.039 nM.

Same assay, conditions: GST-Bcl-2 1 nM, F-Bak peptide probe 100 nM, Tb-anti-GST antibody 1 nM; Ki by Wang's equation
For `CN1CCC(Nc2ccc(S(=O)(=O)NC(=O)c3ccc(N4CCN(CC5=C(c6ccc(Cl)cc6)CC(C)(C)CC5)CC4)cc3OCc3csc(NC(=O)OC(C)(C)C)n3)cc2[N+](=O)[O-])CC1` [Example 222, tert-butyl 4-[(5-(4-{[2-(4-chlorophenyl)-4,4-dimethylcyclohex-1-en-1-yl]methyl}piperazin-1-yl)-2-{[({4-[(1-methylpiperidin-4-yl)amino]-3-nitrophenyl}sulfonyl)amino]carbonyl}phenoxy)methyl]-1,3-thiazol-2-ylcarbamate], the Ki was greater than 1200 nM.
`CN1CCC(Nc2ccc(S(=O)(=O)NC(=O)c3ccc(N4CCN(CC5=C(c6ccc(Cl)cc6)CC(C)(C)CC5)CC4)cc3OCc3csc(N)n3)cc2[N+](=O)[O-])CC1` [Example 223, 2-[(2-amino-1,3-thiazol-4-yl)methoxy]-4-(4-{[2-(4-chlorophenyl)-4,4-dimethylcyclohex-1-en-1-yl]methyl}piperazin-1-yl)-N-({4-[(1-methylpiperidin-4-yl)amino]-3-nitrophenyl}sulfonyl)benzamide] showed a Ki of 10.9 nM.
`CC(=O)Nc1cccc(Oc2cc(N3CCN(CC4=C(c5ccc(Cl)cc5)CC(C)(C)CC4)CC3)ccc2C(=O)NS(=O)(=O)c2ccc(NC3CCN(C4CCOCC4)CC3)c([N+](=O)[O-])c2)c1` [Example 225, 2-[3-(acetylamino)phenoxy]-4-(4-{[2-(4-chlorophenyl)-4,4-dimethylcyclohex-1-en-1-yl]methyl}piperazin-1-yl)-N-({3-nitro-4-[(1-tetrahydro-2H-pyran-4-ylpiperidin-4-yl)amino]phenyl}sulfonyl)benzamide] was tested, and the Ki was 3.28 nM.
For `CC1(C)CCC(CN2CCN(c3ccc(C(=O)NS(=O)(=O)c4ccc(NC5CCN(C6CCOCC6)CC5)c([N+](=O)[O-])c4)c(Nc4ccccc4Cl)c3)CC2)=C(c2ccc(Cl)cc2)C1` [Example 226, 2-[(2-chlorophenyl)amino]-4-(4-{[2-(4-chlorophenyl)-4,4-dimethylcyclohex-1-en-1-yl]methyl}piperazin-1-yl)-N-({3-nitro-4-[(1-tetrahydro-2H-pyran-4-ylpiperidin-4-yl)amino]phenyl}sulfonyl)benzamide], the Ki was 7.59 nM.
`COc1cc2[nH]ccc2cc1Oc1cc(N2CCN(CC3=C(c4ccc(Cl)cc4)CC(C)(C)CC3)CC2)ccc1C(=O)NS(=O)(=O)c1ccc(NC2CCN(C3CCOCC3)CC2)c([N+](=O)[O-])c1` [Example 227, 4-(4-{[2-(4-chlorophenyl)-4,4-dimethylcyclohex-1-en-1-yl]methyl}piperazin-1-yl)-2-[(6-methoxy-1H-indol-5-yl)oxy]-N-({3-nitro-4-[(1-tetrahydro-2H-pyran-4-ylpiperidin-4-yl)amino]phenyl}sulfonyl)benzamide] was tested, and the Ki was 0.174 nM.
In the case of `CN1CCC(Nc2ccc(S(=O)(=O)NC(=O)c3ccc(N4CCN(CC5=C(c6ccc(Cl)cc6)CC(C)(C)CC5)CC4)cc3Oc3ccc4nc(N)sc4c3)cc2[N+](=O)[O-])CC1` [Example 229, 2-[(2-amino-1,3-benzothiazol-6-yl)oxy]-4-(4-{[2-(4-chlorophenyl)-4,4-dimethylcyclohex-1-en-1-yl]methyl}piperazin-1-yl)-N-({4-[(1-methylpiperidin-4-yl)amino]-3-nitrophenyl}sulfonyl)benzamide], the Ki is reported as 1.08 nM.
`CN1CCC(Nc2ccc(S(=O)(=O)NC(=O)c3ccc(N4CCN(CC5=C(c6ccc(Cl)cc6)CC(C)(C)CC5)CC4)cc3Nc3ccccc3Cl)cc2[N+](=O)[O-])CC1` [Example 230, 2-[(2-chlorophenyl)amino]-4-(4-{[2-(4-chlorophenyl)-4,4-dimethylcyclohex-1-en-1-yl]methyl}piperazin-1-yl)-N-({4-[(1-methylpiperidin-4-yl)amino]-3-nitrophenyl}sulfonyl)benzamide] gave a Ki of 2.83 nM.
Molecule `CN(C)CCCNc1ccc(S(=O)(=O)NC(=O)c2ccc(N3CCN(CC4=C(c5ccc(Cl)cc5)CC(C)(C)CC4)CC3)cc2Oc2ccc3c(ccn3C(=O)OC(C)(C)C)c2)cc1[N+](=O)[O-]` [Example 231, tert-butyl 5-[5-(4-{[2-(4-chlorophenyl)-4,4-dimethylcyclohex-1-en-1-yl]methyl}piperazin-1-yl)-2-({[(4-{[3-(dimethylamino)propyl]amino}-3-nitrophenyl)sulfonyl]amino}carbonyl)phenoxy]-1H-indole-1-carboxylate] has a Ki of 36.9 nM.
With `CC1(C)CCC(CN2CCN(c3ccc(C(=O)NS(=O)(=O)c4ccc(NC5CCN(C6CCOCC6)CC5)c([N+](=O)[O-])c4)c(Oc4ccc5nc(N)sc5c4)c3)CC2)=C(c2ccc(Cl)cc2)C1` [Example 232, 2-[(2-amino-1,3-benzothiazol-6-yl)oxy]-4-(4-{[2-(4-chlorophenyl)-4,4-dimethylcyclohex-1-en-1-yl]methyl}piperazin-1-yl)-N-({3-nitro-4-[(1-tetrahydro-2H-pyran-4-ylpiperidin-4-yl)amino]phenyl}sulfonyl)benzamide] the Ki was 1.05 nM.
Molecule `CC1(C)CCC(CN2CCN(c3ccc(C(=O)NS(=O)(=O)c4ccc(NCCCN5CCNC(=O)C5)c([N+](=O)[O-])c4)c(Oc4cc5cc[nH]c5cc4F)c3)CC2)=C(c2ccc(Cl)cc2)C1` [Example 233, 4-(4-{[2-(4-chlorophenyl)-4,4-dimethylcyclohex-1-en-1-yl]methyl}piperazin-1-yl)-2-[(6-fluoro-1H-indol-5-yl)oxy]-N-[(3-nitro-4-{[3-(3-oxopiperazin-1-yl)propyl]amino}phenyl)sulfonyl]benzamide] has a Ki of 0.037 nM.
`CC1(C)CCC(CN2CCN(c3ccc(C(=O)NS(=O)(=O)c4ccc(NC5CCN(CC6CC6)CC5)c([N+](=O)[O-])c4)c(Oc4cc5cc[nH]c5cc4F)c3)CC2)=C(c2ccc(Cl)cc2)C1` [Example 236, 4-(4-{[2-(4-chlorophenyl)-4,4-dimethylcyclohex-1-en-1-yl]methyl}piperazin-1-yl)-N-[(4-{[1-(cyclopropylmethyl)piperidin-4-yl]amino}-3-nitrophenyl)sulfonyl]-2-[(6-fluoro-1H-indol-5-yl)oxy]benzamide] gave a Ki of 0.071 nM.
In the case of `CC1(C)CCC(CN2CCN(c3ccc(C(=O)NS(=O)(=O)c4ccc(NCC5CCOCC5)c([N+](=O)[O-])c4)c(Oc4cc5cc[nH]c5cc4F)c3)CC2)=C(c2ccc(Cl)cc2)C1` [Example 238, 4-(4-{[2-(4-chlorophenyl)-4,4-dimethylcyclohex-1-en-1-yl]methyl}piperazin-1-yl)-2-[(6-fluoro-1H-indol-5-yl)oxy]-N-({3-nitro-4-[(tetrahydro-2H-pyran-4-ylmethyl)amino]phenyl}sulfonyl)benzamide], the Ki is reported as 0.124 nM.
With `CC1(C)CCC(CN2CCN(c3ccc(C(=O)NS(=O)(=O)c4ccc(NC(CO)C5CCOCC5)c([N+](=O)[O-])c4)c(Oc4cc5cc[nH]c5cc4F)c3)CC2)=C(c2ccc(Cl)cc2)C1` (stereo not shown) [Example 240, 4-(4-{[2-(4-chlorophenyl)-4,4-dimethylcyclohex-1-en-1-yl]methyl}piperazin-1-yl)-2-[(6-fluoro-1H-indol-5-yl)oxy]-N-({4-[(2-hydroxy-1-tetrahydro-2H-pyran-4-ylethyl)amino]-3-nitrophenyl}sulfonyl)benzamide] the Ki was 0.912 nM.
Molecule `CC1(C)CCC(CN2CCN(c3ccc(C(=O)NS(=O)(=O)c4ccc(NC5CCN(C6CCOCC6)CC5)c([N+](=O)[O-])c4)c(Oc4cc5cc[nH]c5cc4Cl)c3)CC2)=C(c2ccc(Cl)cc2)C1` [Example 242, 2-[(6-chloro-1H-indol-5-yl)oxy]-4-(4-{[2-(4-chlorophenyl)-4,4-dimethylcyclohex-1-en-1-yl]methyl}piperazin-1-yl)-N-({3-nitro-4-[(1-tetrahydro-2H-pyran-4-ylpiperidin-4-yl)amino]phenyl}sulfonyl)benzamide] has a Ki of 0.092 nM.
Molecule `CC1(C)CCC(CN2CCN(c3ccc(C(=O)NS(=O)(=O)c4ccc(NCC5CCOCC5)c([N+](=O)[O-])c4)c(Oc4cc5cc[nH]c5c(F)c4F)c3)CC2)=C(c2ccc(Cl)cc2)C1` [Example 243, 4-(4-{[2-(4-chlorophenyl)-4,4-dimethylcyclohex-1-en-1-yl]methyl}piperazin-1-yl)-2-[(6,7-difluoro-1H-indol-5-yl)oxy]-N-({3-nitro-4-[(tetrahydro-2H-pyran-4-ylmethyl)amino]phenyl}sulfonyl)benzamide] has a Ki of 0.069 nM.
Work on `CN1CCN(Nc2ccc(S(=O)(=O)NC(=O)c3ccc(N4CCN(CC5=C(c6ccc(Cl)cc6)CC(C)(C)CC5)CC4)cc3Oc3cc4cc[nH]c4cc3Cl)cc2[N+](=O)[O-])CC1` [Example 244, 2-[(6-chloro-1H-indol-5-yl)oxy]-4-(4-{[2-(4-chlorophenyl)-4,4-dimethylcyclohex-1-en-1-yl]methyl}piperazin-1-yl)-N-({4-[(4-methylpiperazin-1-yl)amino]-3-nitrophenyl}sulfonyl)benzamide] yielded a Ki of 1.73 nM.
With `CC1(C)CCC(CN2CCN(c3ccc(C(=O)NS(=O)(=O)c4ccc(NC5CCN(Cc6cscn6)CC5)c([N+](=O)[O-])c4)c(Oc4cc5cc[nH]c5cc4F)c3)CC2)=C(c2ccc(Cl)cc2)C1` [Example 245, 4-(4-{[2-(4-chlorophenyl)-4,4-dimethylcyclohex-1-en-1-yl]methyl}piperazin-1-yl)-2-[(6-fluoro-1H-indol-5-yl)oxy]-N-[(3-nitro-4-{[1-(1,3-thiazol-4-ylmethyl)piperidin-4-yl]amino}phenyl)sulfonyl]benzamide] the Ki was 0.48 nM.
